Experimental data taken from patent US20190008790A1, “A METHOD FOR THE PREPARATION OF A DELIVERY DRUG DELIVERY SYSTEM AND A COMPOSITION THEREFOR” (Element Six (UK) Limited, priority 2015, published 2019).
In brackets after ≈: the same amount, converted by molar mass.

Legend:
Fusobacterium nucleatum = assay: IC50 test (half maximal inhibitory concentration) on gram-negative bacterium; format: cell-based; details: Triclosan ppm, percentage growth compared to positive control, 800 ppm stock
Text: The effectiveness of the active pharmaceutical ingredient may be measured by means of its “half maximal inhibitory concentration”, also known as the “IC50” value.
The IC50 of a substance is a measure of the effectiveness of that substance in inhibiting a specific biological or biochemical function. The IC50 indicates how much of a particular drug or other substance (inhibitor) is needed to inhibit a given biological process (or component of a process, i.e. an enzyme, cell, cell receptor or microorganism) by half. It is commonly used as a measure of antagonist drug potency in pharmacological research. The IC50 of a drug can be determined by constructing a dose-response curve and examining the effect of different concentrations of antagonist on reversing agonist activity. IC50 values can be calculated for a given antagonist by determining the concentration needed to inhibit half of the maximum biological response of the agonist.
A sample of the Triclosan™/nano-diamond powder produced according to Example 5 was dispersed into deionized water to form an 800 ppm Triclosan™ dispersion (Solution 1).
Triclosan™ was dissolved into an ethanol/water mixture (50/50 in volume) to form an 800 ppm Triclosan™ solution (Solution 2). An IC50 test was conducted with Solution 2 on gram-negative bacteria (Fusobacterium nucleatum). […]

[1] = system: Staphylococcus aureus subsp. aureus MRSA252; assay: Minimum Bactericidal Concentration Test (MBC), re-growth as percentage of positive control; format: cell-based; details: ciprofloxacin concentration, dilutions of 0.5 mg/ml stock, re-growth vs positive control, read-out: concentration at which activity against MRSA252 was maintained (MBC test)
Protocol: In this example, the efficacy of the product of Example 7 was tested against Comparative Example 7 using a Minimum Bactericidal Concentration Test (MBC) to compare the inhibitory.
A sample of the spray dried powder obtained from Example 7 was dispersed into deionised water to give a ciprofloxacin concentration of 0.5 mg/ml (“Solution A”). A dispersion having the same concentration of ciprofloxacin was prepared by dissolving ciprofloxacin into dimethyl sulfoxide (“Solution B”). A third sample (“Solution C”) consisting of a water saturated ciprofloxacin solution was prepared by dispersing powder obtained from Comparative Example 7.
All three solutions were diluted to various concentrations and were subject to Minimum Bactericidal Concentration Test (MBC) to compare the inhibitory activity via re-growth of Staphylococcus aureus subsp. aureus MRSA252 as percentage of positive control. […] Solution B (DMSO/ciprofloxacin organic solution) maintained activity against MRSA252 at 62.5 mg/L (see FIG. 4(b)).

Row | SMILES | IC50 (Fusobacterium nucleatum) | IC50 (Fusobacterium nucleatum; listed as Triclosan™ in a 50:50 by volume water/ethanol solution) | MBC [1]
1 | Oc1cc(Cl)ccc1Oc1ccc(Cl)cc1Cl [Solution 2, 5-chloro-2-(2,4-dichloro-phenoxy)-phenol] | around 56 ppm | ~56 ppm | –
2 | O=C(O)c1cn(C2CC2)c2cc(N3CCNCC3)c(F)cc2c1=O [Solution B, ciprofloxacin] | – | – | 62.5 µg/mL (≈ 189 µM)
